Results as given in US8629164B2, “Inhibitors of NF-κB” (Profectus Biosciences, Inc., priority 2009, dated 2014).

Columns and labels:
[1] = tested on: human peripheral blood mononuclear cells (hPBMCs); assay: Cytotoxicity to hPBMCs (CellTiter-Glo); assay type: cell-based; settings: hPBMCs, at 40 μM
Procedure: Human peripheral blood mononuclear cells (hPBMCs) were treated with example 1 or DHMEQ and the percentage of viable cells was assessed 24 hours post drug treatment. The graph represents the mean±the standard deviation of three replicate experiments.
The cytotoxicity profile of the compound of Example 1. The cytotoxicity of the compound of Example 1 was determined for human peripheral blood mononuclear cells (hPBMCs). As with the activity assay, the hPBMCs were treated with 0, 0.2, 1, 10, 20 and 40 μM of the compound of Example 1 for 2 hours, and then induced with 20 ng/ml TNF-α for 48 hours. The number of viable cells was determined using CellTiter-Glo luminescent cell viability assay (Promega (cat #G7573)). […] The selectivity index (the ratio of cytotoxicity CC50 to inhibitory IC50) is assigned to the compound of Example 1.

RelA/p65 = assay: Immunostaining of RelA/p65 nuclear translocation in Hek293 cells; assay type: cell-based; settings: TNFα 20 ng/ml, 30 minutes
Procedure: (§1) Specifically, the compound of Example 1 causes the accumulation of activated RelA/p65 in the cytoplasm of cells. Hek293 cells were treated with DHMEQ or the compound of Example 1 (as indicated) with TNFα (20 ng/ml) for 30 minutes. After incubation, the cells were immunostained with anti-p65 antibody (C-20) antibody (Santa Cruz Biotechnology, Santa Cruz, Calif.) and nuclei were counterstained with Dapi. Images were captured using an AE31 inverted microscope with epifluorescence illuminator (Motic, Xiamen, China) and a ProgRes C3 camera (JENOPTIK, Jena, Germany). Individual images of p65 and corresponding nuclei were merged for final figure. Control treated cells (DMSO only) show nuclear accumulation of p65 upon TNFα stimulation.
as §1, with “Immunostaining of RelA/p65. The” for “Specifically, the”, “incubation,” for “incubation, the”, “figure.” for “figure. Control treated cells (DMSO only) show nuclear accumulation of p65 upon TNFα stimulation.”

RelB = biological target: T1, RelB (Homo sapiens, UniProt Q01201); assay: TransAM NF-κB Family DNA Binding ELISA, RelB; settings: RelB binding to DNA IC50, FIG. 8, non-canonical pathway
T1 sequence (Q01201 1-579): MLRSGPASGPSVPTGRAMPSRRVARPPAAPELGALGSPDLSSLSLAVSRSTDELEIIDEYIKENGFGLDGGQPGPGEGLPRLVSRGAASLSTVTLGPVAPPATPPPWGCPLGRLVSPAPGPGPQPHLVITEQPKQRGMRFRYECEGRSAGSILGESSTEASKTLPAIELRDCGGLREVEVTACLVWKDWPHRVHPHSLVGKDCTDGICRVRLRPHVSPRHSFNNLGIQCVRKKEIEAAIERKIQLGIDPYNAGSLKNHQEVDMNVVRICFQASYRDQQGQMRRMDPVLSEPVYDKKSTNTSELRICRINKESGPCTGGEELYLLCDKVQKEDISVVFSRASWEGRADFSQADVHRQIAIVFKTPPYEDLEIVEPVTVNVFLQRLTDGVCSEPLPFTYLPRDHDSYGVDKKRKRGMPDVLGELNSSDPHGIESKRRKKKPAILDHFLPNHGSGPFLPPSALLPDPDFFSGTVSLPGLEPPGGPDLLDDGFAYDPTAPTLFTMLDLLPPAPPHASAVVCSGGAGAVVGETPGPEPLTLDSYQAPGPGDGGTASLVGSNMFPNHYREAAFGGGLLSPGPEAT
T1 sequence (Q00653 1-454 partner limits assumed): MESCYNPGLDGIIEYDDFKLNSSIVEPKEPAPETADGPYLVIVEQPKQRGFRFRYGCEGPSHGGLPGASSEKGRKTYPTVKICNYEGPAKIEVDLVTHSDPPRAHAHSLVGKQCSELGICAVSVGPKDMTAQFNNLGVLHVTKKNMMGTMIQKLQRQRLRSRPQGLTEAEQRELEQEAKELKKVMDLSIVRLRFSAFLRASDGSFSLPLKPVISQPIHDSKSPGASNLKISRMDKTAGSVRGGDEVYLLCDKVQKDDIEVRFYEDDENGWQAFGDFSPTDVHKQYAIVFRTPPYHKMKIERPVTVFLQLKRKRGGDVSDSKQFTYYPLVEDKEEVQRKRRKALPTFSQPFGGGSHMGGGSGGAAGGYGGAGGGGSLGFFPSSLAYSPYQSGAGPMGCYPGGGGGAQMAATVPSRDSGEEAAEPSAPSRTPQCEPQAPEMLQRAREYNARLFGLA
Procedure: Treated samples were then transferred to 30 μL Complete Binding Buffer (with DTT) in microplate wells pre-coated with the NF-κB consensus oligonucleotide. […] The plate was incubated for 1 hour at room temperature with gentle shaking and then washed 3 times with 200 μL 1× Wash Buffer. NF-κB p65, p50, p52, RelB, or c-Rel subunits bound to the plate were detected with 100 μL of the primary antibody (diluted 1:1000 in 1× Antibody Buffer) specific for that subunit. The plate was incubated for 1 hour at room temperature and then washed 3 times with 200 μL 1× Wash Buffer. Next, 100 μL of a HRP conjugated goat anti-rabbit antibody (diluted 1:1,000 in 1× Antibody Buffer) was added to each well. The plate was incubated for 1 hour at room temperature and then washed 4 times with 200 μL 1× Wash Buffer. 100 μL of room temperature Developing Solution was added to each well. The reaction was allowed to develop for 2-10 minutes until a medium dark blue color developed (depending on the subunit activity in the lot of extract or lot of recombinant protein used) and then the reaction was stopped with 100 μL Stop Solution yielding a yellow color. Absorbance was recorded using a Becton-Dickinson DTX 880 Multimode Detector at 450 nm with a reference wavelength subtracted at 620 nm.

[2] = tested on: collagen-induced arthritis; assay: Mouse model of collagen-induced rheumatoid arthritis (CIA)
Description: Male DBA mice developed arthritis by injecting bovine CII collagen in tails at day 1 and day 21.

Compound | inhibition of cell growth [1] | concentration at which TNFα induced nuclear accumulation of p65 was significantly blocked (RelA/p65) | IC50 (RelB) | anti-inflammation effects vs vehicle treated group ([2]; Example 2 15 mg/kg s.c. qd 21-35, etanercept 50 ug/mouse ip qd 21-35, P<0.05) | histological evaluation of joints ([2]; day 35) | myeloperoxidase activities ([2]; mouse, in vivo)
O=C(NC1=CC(=O)C2OC2C1O)c1ccccc1O (stereo not drawn) [DHMEQ, dehydroxymethylepoxyquinomicin, reference compound] | greater than 60% | higher concentration | > 20 µM | – | – | –
etanercept [reference compound] | – | – | – | statistal significant anti-inflammation effects | significant reduction of inflammation | concomitant reduction
